Experimental data: US11186566B2, “Modulator of cystic fibrosis transmembrane conductance regulator, pharmaceutical compositions, methods of treatment, and process for making the modulator” (Vertex Pharmaceuticals Incorporated, priority 2016, dated 2021)
Where two headings read alike, the source gives them in different places.

How the values were obtained:
[1] = target: F508del-CFTR (Homo sapiens (Human), UniProt P13569, DEL508-508); assay: Membrane potential optical (fluorescent voltage sensing dye, FLIPR III) HTS assay for F508del-CFTR modulators; type: cell-based
Excerpt: Membrane Potential Optical Methods for Assaying Properties of F508del-CFTR Modulators
The assay utilizes fluorescent voltage sensing dyes to measure changes in membrane potential using a fluorescent plate reader (e.g., FLIPR III, Molecular Devices, Inc.) as a readout for increase in functional F508del in NIH 3T3 cells.
5A-A1. Identification of F508Del-CFTR Modulators
To identify modulators of F508del, a fluorescence based HTS assay format was developed. This HTS assay utilizes fluorescent voltage sensing dyes to measure changes in membrane potential on the FLIPR III as a measurement for increase in gating (conductance) of F508del NIH 3T3 cells.
(in mM) NaCl 160, KCl 4.5, CaCl2 2, MgCl2 1, HEPES 10, pH 7.4 with NaOH, Glucose 10.
Chloride salts in Bath Solution #1 (above) are substituted with gluconate salts.
NIH3T3 mouse fibroblasts stably expressing F508del are used for optical measurements of membrane potential. The cells are maintained at 37° C. in 5% CO2 and 90% humidity in Dulbecco's modified Eagle's medium supplemented with 2 mM glutamine, 10% fetal bovine serum, 1×NEAA, β-ME, 1×pen/strep, and 25 mM HEPES in 175 cm^2 culture flasks. For all optical assays, the cells were seeded at 12,000 cells/well in 384-well matrigel-coated plates and cultured for 18-24 hrs at 37° C. for the potentiator assay. For the correction assays, the cells are cultured at 37° C. with and without compounds for 18-24 hours.

[2] = target: human PXR (Homo sapiens (Human), UniProt O75469); assay: PXR assay (PXR mediated CYP3A4 induction, DPX-2 cell line); type: cell-based; details: DPX-2 cells, 48 hours, 0.1 to 60 μM
Description: 5D. Experimental Protocol for PXR Assay
The propensity for PXR mediated CYP3A4 induction is assessed using the DPX-2 cell line in vitro. This cell line, which has been licensed from Puracyp Inc. was derived from HepG2 cells and has been stably transfected with genes encoding human PXR as well as a modified luciferase reporter linked to the CYP3A4 promoter region and related distal and proximal enhancers.
The assay is run in 384 well format and each test article is administered in 11 doses ranging from 0.1 to 60 μM. On day 1, DPX-2 cells which have previously been expanded in-house and cryopreserved are thawed and seeded in tissue culture plates. The following day, media is changed and cells are cultured in media containing test article, vehicle control or the positive control compound, the clinically validated CYP3A4 inducer rifampicin. Cells are cultured in the presence of test article for 48 hours and then cell viability is assessed using fluorescence based assay (Cell Titer-Fluor, Promega) with an EnVision Plate Reader (PerkinElmer). Subsequently, CYP3A4 transactivation, which is proportional to luciferase activity, is measured by reading luminescense using the Promega One-Glo reagent system using the same plate reader.
Data processing within the Genedata software package allows reporting of max fold induction compared to vehicle control, an EC50 value for CYP3A4 inducers and an 11 point-dose response curve.

[3] = Rat IV and PO PK studies; type: in vivo, male Sprague-Dawley rats; details: male, Sprague-Dawley, plasma; for bioavailability / AUC: 3 mg/kg, oral; for bioavailability: read-out: Rat po % F; for clearance: intravenous, 3.0 mg/kg, read-out: Rat iv CL
Description: 5C. Experimental Protocol for Rat IV and PO PK Studies
[…] […] Analyses of plasma and dose preparations were performed using LC/MS/MS.
Plasma concentration-time profiles of the tested compound in Sprague-Dawley rats at scheduled (nominal) sampling times were analyzed by noncompartmental pharmacokinetic methods using PK function within Watson LIMS software, Version 7.4.2 (Thermo Scientific Inc, Waltham, Mass.). AUC values were calculated using the linear trapezoidal rule.

[4] = F508del NIH 3T3 cells, assay 5A-A1, read-out: CFTRdF508 EC50
[5] = Table 9, read-out: CFTR dF508 EC50

Chain of human PXR (O75469 whole entry): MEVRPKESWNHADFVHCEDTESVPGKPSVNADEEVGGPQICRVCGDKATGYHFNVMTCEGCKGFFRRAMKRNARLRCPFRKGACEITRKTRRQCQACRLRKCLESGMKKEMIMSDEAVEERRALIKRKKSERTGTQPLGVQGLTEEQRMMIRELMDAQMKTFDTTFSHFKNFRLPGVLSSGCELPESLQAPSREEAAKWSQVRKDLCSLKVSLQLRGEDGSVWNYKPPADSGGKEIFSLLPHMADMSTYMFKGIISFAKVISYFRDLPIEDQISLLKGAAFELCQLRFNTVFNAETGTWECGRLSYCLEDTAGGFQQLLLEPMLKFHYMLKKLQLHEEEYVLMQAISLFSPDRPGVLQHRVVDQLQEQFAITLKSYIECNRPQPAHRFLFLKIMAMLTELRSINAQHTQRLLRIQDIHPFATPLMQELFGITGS
Chain of F508del-CFTR (P13569 other isoform, or with tags, fused parts or gaps del F508-F508): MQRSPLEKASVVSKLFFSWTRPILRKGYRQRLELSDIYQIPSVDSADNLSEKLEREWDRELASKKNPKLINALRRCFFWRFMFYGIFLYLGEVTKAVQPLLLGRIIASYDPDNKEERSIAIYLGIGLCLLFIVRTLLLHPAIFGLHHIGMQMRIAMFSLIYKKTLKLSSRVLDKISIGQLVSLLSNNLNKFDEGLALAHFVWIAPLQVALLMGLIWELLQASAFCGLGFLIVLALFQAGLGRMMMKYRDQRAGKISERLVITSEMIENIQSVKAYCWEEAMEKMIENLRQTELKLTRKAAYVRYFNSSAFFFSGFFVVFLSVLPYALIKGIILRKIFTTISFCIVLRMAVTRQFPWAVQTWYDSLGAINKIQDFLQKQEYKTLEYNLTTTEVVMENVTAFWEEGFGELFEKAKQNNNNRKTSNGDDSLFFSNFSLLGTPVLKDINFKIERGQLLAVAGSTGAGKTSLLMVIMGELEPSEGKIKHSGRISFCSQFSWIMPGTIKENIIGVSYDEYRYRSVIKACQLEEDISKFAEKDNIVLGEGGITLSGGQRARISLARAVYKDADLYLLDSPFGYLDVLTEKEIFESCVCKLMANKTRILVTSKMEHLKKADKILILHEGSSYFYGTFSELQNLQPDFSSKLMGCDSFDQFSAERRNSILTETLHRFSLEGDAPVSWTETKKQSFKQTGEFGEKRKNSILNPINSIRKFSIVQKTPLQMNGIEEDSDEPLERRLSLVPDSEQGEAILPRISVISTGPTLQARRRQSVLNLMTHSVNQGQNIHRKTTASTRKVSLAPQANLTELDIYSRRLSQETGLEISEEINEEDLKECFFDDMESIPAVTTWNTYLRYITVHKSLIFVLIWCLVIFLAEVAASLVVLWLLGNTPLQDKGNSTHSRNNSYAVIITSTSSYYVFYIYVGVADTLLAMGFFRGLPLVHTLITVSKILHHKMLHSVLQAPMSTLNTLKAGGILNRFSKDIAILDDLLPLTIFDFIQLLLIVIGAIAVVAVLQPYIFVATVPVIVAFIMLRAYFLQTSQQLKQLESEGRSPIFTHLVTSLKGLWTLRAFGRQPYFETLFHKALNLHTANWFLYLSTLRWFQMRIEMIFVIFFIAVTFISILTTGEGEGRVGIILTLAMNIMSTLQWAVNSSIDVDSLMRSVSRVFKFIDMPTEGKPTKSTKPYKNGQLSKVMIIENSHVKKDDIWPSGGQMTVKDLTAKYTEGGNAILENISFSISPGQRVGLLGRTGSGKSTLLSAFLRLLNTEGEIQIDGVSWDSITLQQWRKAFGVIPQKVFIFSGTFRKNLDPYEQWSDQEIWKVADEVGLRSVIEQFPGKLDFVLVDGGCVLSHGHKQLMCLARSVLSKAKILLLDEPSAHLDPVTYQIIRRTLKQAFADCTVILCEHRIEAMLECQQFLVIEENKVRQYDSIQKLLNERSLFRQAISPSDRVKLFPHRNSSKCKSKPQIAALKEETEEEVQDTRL

Structure (SMILES): C[C@@H]1CN(c2nc(-n3ccc(OCCC4(C(F)(F)F)CC4)n3)ccc2C(=O)NS(=O)(=O)c2ccc(O)cc2)C(C)(C)C1 [Compound 31, N-(4-Hydroxyphenyl)sulfonyl-6-[3-[2-[1-(trifluoromethyl)cyclopropyl]ethoxy]pyrazol-1-yl]-2-[(4S)-2,2,4-trimethylpyrrolidin-1-yl]pyridine-3-carboxamide]
- EC50 [1, 4]: < 100 nM
- EC50 ([1]; Table 7, Compound 1 and metabolites, read-out: CFTRdF508 EC50): 30 nM
- EC50 [1, 5]: 30 nM
- PXR Max Induction (% of rifampicin) [2]: 7 % of rifampicin

Structure (SMILES): Cc1cccc(S(=O)(=O)NC(=O)c2ccc(-n3ccc(OCC4(C(F)(F)F)CC4)n3)nc2N2C[C@@H](C)CC2(C)C)c1 [Comp. 28, N-(m-Tolylsulfonyl)-6-[3-[[1-(trifluoromethyl)cyclopropyl]methoxy]pyrazol-1-yl]-2-[(4S)-2,2,4-trimethylpyrrolidin-1-yl]pyridine-3-carboxamide]
- EC50 [1, 4]: < 100 nM
- EC50 [1, 5]: 30 nM
- PXR Max Induction (% of rifampicin) [2]: 17 % of rifampicin

Structure (SMILES): C[C@@H]1CN(c2nc(-n3ccc(COCC4(C(F)(F)F)CC4)n3)ccc2C(=O)NS(=O)(=O)c2ccccc2)C(C)(C)C1 [Comp. 37, N-(Benzenesulfonyl)-6-[3-[[1-(trifluoromethyl)cyclopropyl]methoxymethyl]pyrazol-1-yl]-2-[(4S)-2,2,4-trimethylpyrrolidin-1-yl]pyridine-3-carboxamide]
- EC50 [1, 4]: < 100 nM
- EC50 [1, 5]: 70 nM
- PXR Max Induction (% of rifampicin) [2]: 8 % of rifampicin

Structure (SMILES): C[C@@H]1CN(c2nc(-n3ccc(OCC4C(C)(C)C4(C)C)n3)ccc2C(=O)NS(=O)(=O)c2ccc(O)cc2)C(C)(C)C1 [Comp. 33, N-(4-Hydroxyphenyl)sulfonyl-6-[3-[(2,2,3,3-tetramethylcyclopropyl)methoxy]pyrazol-1-yl]-2-[(4S)-2,2,4-trimethylpyrrolidin-1-yl]pyridine-3-carboxamide]
- EC50 [1, 4]: < 100 nM
- EC50 [1, 5]: 80 nM
- PXR Max Induction (% of rifampicin) [2]: 0 % of rifampicin

Structure (SMILES): C[C@@H]1CN(c2nc(-n3ccc(OCC4CCC4)n3)ccc2C(=O)NS(=O)(=O)c2cccnc2N)C(C)(C)C1 [Comp. E, reference compound]
- PXR Max Induction (% of rifampicin) [2]: 10 % of rifampicin

Structure (SMILES): C[C@@H]1CN(c2nc(-n3ccc(OCC(C)(C)C)n3)ccc2C(=O)NS(=O)(=O)c2ccc[nH]c2=O)C(C)(C)C1 [Comp. C, reference compound]
- PXR Max Induction (% of rifampicin) [2]: 3 % of rifampicin

Structure (SMILES): C[C@@H]1CN(c2nc(-n3ccc(OCC4(C(F)(F)F)CCC4)n3)ccc2C(=O)NS(=O)(=O)c2cccc(F)c2)C(C)(C)C1 [Compound 59, N-(3-Fluorophenyl)sulfonyl-6-[3-[[1-(trifluoromethyl)cyclobutyl]methoxy]pyrazol-1-yl]-2-[(4S)-2,2,4-trimethylpyrrolidin-1-yl]pyridine-3-carboxamide]
- EC50 [1, 4]: < 100 nM

Structure (SMILES): C[C@@H]1CN(c2nc(-n3ccc(OCC4(C(F)(F)F)CCC4)n3)ccc2C(=O)NS(=O)(=O)c2ccccc2)C(C)(C)C1 [Compound 10, N-(Benzenesulfonyl)-6-[3-[[1-(trifluoromethyl)cyclobutyl]methoxy]pyrazol-1-yl]-2-[(4S)-2,2,4-trimethylpyrrolidin-1-yl]pyridine-3-carboxamide]
- EC50 [1, 4]: < 100 nM
- EC50 [1, 5]: 40 nM
- bioavailability [3]: 41%
- clearance [3]: 11.2 mL/min/kg
- AUC [3]: 2200 ng·h/mL

Structure (SMILES): C[C@@H]1CN(c2nc(-n3ccc(O[C@@H]4C[C@H]4C(F)(F)F)n3)ccc2C(=O)NS(=O)(=O)c2ccccc2)C(C)(C)C1 (racemic) [Compound 19, N-(Benzenesulfonyl)-6-[3-[(trans)-2-(trifluoromethyl)cyclopropoxy]pyrazol-1-yl]-2-[(4S)-2,2,4-trimethylpyrrolidin-1-yl]pyridine-3-carboxamide]
- EC50 [1, 4]: 100 to 1000 nM

Structure (SMILES): CC1(C)CN(c2nc(-n3ccc(OCC4(C(F)(F)F)CC4)n3)ccc2C(=O)NS(=O)(=O)c2ccccc2)C(C)(C)C1 [Compound 56, N-(Benzenesulfonyl)-2-(2,2,4,4-tetramethylpyrrolidin-1-yl)-6-[3-[[1-(trifluoromethyl)cyclopropyl]methoxy]pyrazol-1-yl]pyridine-3-carboxamide]
- EC50 [1, 4]: 100 to 1000 nM

Structure (SMILES): C[C@@H]1CN(c2nc(-n3ccc(OCCC(C4CC4)C4CC4)n3)ccc2C(=O)NS(=O)(=O)c2ccccc2)C(C)(C)C1 [Comp. 42, N-(Benzenesulfonyl)-6-[3-(3,3-dicyclopropylpropoxy)pyrazol-1-yl]-2-[(4S)-2,2,4-trimethylpyrrolidin-1-yl]pyridine-3-carboxamide]
- EC50 [1, 4]: < 100 nM
- EC50 [1, 5]: 50 nM
- bioavailability [3]: 51%
- clearance [3]: 5.4 mL/min/kg
- AUC [3]: 4400 ng·h/mL

Structure (SMILES): Cc1ccccc1S(=O)(=O)NC(=O)c1ccc(-n2ccc(OCC3C4(CC4)C34CC4)n2)nc1N1C[C@@H](C)CC1(C)C [Compound 8, 6-[3-(Dispiro[2.0.2^4.1^3]heptan-7-ylmethoxy)pyrazol-1-yl]-N-(o-tolylsulfonyl)-2-[(4S)-2,2,4-trimethylpyrrolidin-1-yl]pyridine-3-carboxamide]
- EC50 [1, 4]: < 100 nM

Structure (SMILES): C[C@@H]1CN(c2nc(-n3ccc(OCCC4(C(F)(F)F)CC4)n3)ccc2C(=O)NS(=O)(=O)c2cccc(F)c2)C(C)(C)C1 [Compound 5, N-(3-Fluorophenyl)sulfonyl-6-[3-[2-[1-(trifluoromethyl)cyclopropyl]ethoxy]pyrazol-1-yl]-2-[(4S)-2,2,4-trimethylpyrrolidin-1-yl]pyridine-3-carboxamide]
- EC50 [1, 4]: < 100 nM
- EC50 [1, 5]: 50 nM
- bioavailability [3]: 50%
- clearance [3]: 9.6 mL/min/kg
- AUC [3]: 2700 ng·h/mL

Structure (SMILES): C[C@@H]1CN(c2nc(-n3ccc(OCC45CC(F)(C4)C5)n3)ccc2C(=O)NS(=O)(=O)c2ccccc2)C(C)(C)C1 [Compound 63, N-(Benzenesulfonyl)-6-[3-[(3-fluoro-1-bicyclo[1.1.1]pentanyl)methoxy]pyrazol-1-yl]-2-[(4S)-2,2,4-trimethylpyrrolidin-1-yl]pyridine-3-carboxamide]
- EC50 [1, 4]: 100 to 1000 nM

Structure (SMILES): C[C@@H]1CN(c2nc(-n3ccc(OCC4(C(F)(F)F)CC4)n3)ccc2C(=O)NS(=N)(=O)c2ccccc2)C(C)(C)C1 (stereo partly drawn) [Compound 45, N-(amino(oxo)(phenyl)-λ^6-sulfaneylidene)-6-(3-((1-(trifluoromethyl)cyclopropyl)methoxy)-1H-pyrazol-1-yl)-2-((S)-2,2,4-trimethylpyrrolidin-1-yl)nicotinamide]
- EC50 [1, 4]: 100 to 1000 nM

Structure (SMILES): COc1cc(C)ccc1S(=O)(=O)NC(=O)c1ccc(-n2ccc(OCC3(C(F)(F)F)CC3)n2)nc1N1C[C@@H](C)CC1(C)C [Compound 12, N-(2-Methoxy-4-methyl-phenyl)sulfonyl-6-[3-[[1-(trifluoromethyl)cyclopropyl]methoxy]pyrazol-1-yl]-2-[(4S)-2,2,4-trimethylpyrrolidin-1-yl]pyridine-3-carboxamide]
- EC50 [1, 4]: < 100 nM

Structure (SMILES): C[C@@H]1CN(c2nc(-n3ccc(OCC(C4CC4)C4CC4)n3)ccc2C(=O)NS(=O)(=O)c2ccccc2)C(C)(C)C1 [Comp. 41, N-(Benzenesulfonyl)-6-[3-(2,2-dicyclopropylethoxy)pyrazol-1-yl]-2-[(4S)-2,2,4-trimethylpyrrolidin-1-yl]pyridine-3-carboxamide]
- bioavailability [3]: 41%
- clearance [3]: 1.9 mL/min/kg
- AUC [3]: 6400 ng·h/mL

Structure (SMILES): C[C@@H]1CN(c2nc(-n3ccc(OCC4(C(F)(F)F)CC4)n3)ccc2C(=O)NS(=O)(=O)c2ccccc2O)C(C)(C)C1 [Compound 20, N-(2-Hydroxyphenyl)sulfonyl-6-[3-[[1-(trifluoromethyl)cyclopropyl]methoxy]pyrazol-1-yl]-2-[(4S)-2,2,4-trimethylpyrrolidin-1-yl]pyridine-3-carboxamide]
- EC50 [1, 4]: 100 to 1000 nM

Structure (SMILES): C[C@@H]1CN(c2nc(-n3ccc(O)n3)ccc2C(=O)NS(=O)(=O)c2ccccc2)C(C)(C)C1 [Compound 65, N-(benzenesulfonyl)-6-(3-hydroxypyrazol-1-yl)-2-[(4S)-2,2,4-trimethylpyrrolidin-1-yl]pyridine-3-carboxamide]
- EC50 [1, 4]: > 1000 nM
